According to EP1022029A1, “NOOTROPIC AGENT” (priority 1997, dated 1999):
Read-outs that look alike come from different tables or passages of the source.

Tests used:
Format in all cases: cell-based
[1] = target: T1, α7 receptor (Rattus norvegicus, UniProt Q05941); assay: ACh-evoked currents in α7 receptors expressed in Xenopus oocytes (two-electrode voltage clamp); conditions: for normalized response (%): nef(+), n=5
T1 construct: expressed in transfected cells; host or cells: Xenopus oocytes injected with in vitro transcribed mRNA
Protocol: Two-electrode voltage-clamp technique was used to record expression α4β2 or α7 receptors in oocytes. […] The holding voltage was -30 or -60 mV for α4β2-nAChR or α7-nAChR, respectively. Downward directions correspond to inward currents.
mRNAs for the rat α4β2 receptor and α7 receptor, GLUR1, 2, 3 receptors, and NP152 and NP153 were constructed as described previously. Xenopus oocytes were manually separated from the ovary, and subjected to treatment with collagenase (0.5 mg/ml). Thereafter, the treated oocytes were incubated overnight in Barth's solution (in mM, 88 NaCl, 1 KCl, 2.4 NaHCO3, 0.82 MgSO4, 0.33 […], 0.41 CaCl2, and 7.5 Tris; pH 7.6). The oocytes were injected with the α4β2 or α7 receptor mRNA and incubated at 18°C. In some cases, NP152 and NP153 were co-expressed with the α4β2 and α7 receptors. The injected oocytes were incubated and transferred to a recording chamber 2-7 days after incubation and continuously superfused at room temperature (20-22°C) with a standard frog Ringer's solution [in mM: 115 NaCl, 2 KCl, 1.8 CaCl2, 5 HEPES; pH 7.0]. To remove the effect of endogenous muscarinic ACh receptor, 1 µM atropine was added to the extracellular solution. ACh-evoked currents were recorded by use of two-electrode voltage clamp techniques and an amplifier (GeneClamp-500, Axon Instrument, Inc. USA). The currents were analyzed on a microcomputer by pClamp software (Axon Instrument, Inc.; Version 6). From the results, an assessment was made as to whether nefiracetam actually acts on the nACh receptors.

[2] = target: T2, nACh receptors (α, β, γ, δ) of Torpedo (Tetronarce californica, UniProt P02710+P02712+P02714+P02718); assay: ACh-evoked currents in normal nACh receptors expressed in Xenopus oocytes (two-electrode voltage clamp)
T2 construct: expressed in transfected cells; host or cells: Xenopus oocytes
Protocol: Cell membrane currents were recorded by use of two-electrode voltage clamp techniques (T. Nishizaki et al., Ikeuchi, Brain Res. 687, 214, 1995). ACh (100 µM) was administered to a single oocyte expressing normal ACh receptors at 10-min intervals before and after 10-min treatment of the oocyte with nefiracetam. The holding voltage was -30 mV. In accordance with a conventional method, wild-type acetylcholine (nACh) receptors were expressed in Xenopus oocytes (K. Sumikawa et al., Mol. Brain Res. 5, 183, 1989), and by the application of ACh (100 µM), inward membrane currents were evoked (Table 13). Currents were recorded at 10-min intervals. During the recording period, spontaneous attenuation of the currents was within 5% (data not shown). […] After the drug was washed out, the amplitude gradually recovered (Table 13). The reductions in current were 70% (n=7) with 0.01 µM and 62% with 0.1 µM nefiracetam.
ACh (100 µM) was applied to each of an oocyte expressing normal ACh receptors and an oocyte expressing mutant ACh receptors (mγΔPKA/Ser353, 354m δΔPKA/Ser361,362) lacking PKA phosphorylation sites, before and after treatment with nefiracetam (0.01 µM). The oocytes expressing normal ACh receptors were treated with H-89 (1 µM) from 15 min before recording, or with pertussis toxin (0.1 µg/ml) for 24h prior to experiments. The currents illustrated in Table 16 were recorded before and 30 min after treatment with nefiracetam. The holding voltage was - 30 mV. In Table 16, each point represents the average obtained from seven oocytes.
ACh (100 µM) was applied to each of an oocyte expressing normal ACh receptors and an oocyte expressing mutant ACh receptors (mγΔPKA/Ser353,354m δΔPKA/Ser361,362) lacking PKA phosphorylation sites, in the presence and absence of GF109203X (100 nM) or in calcium-free extracellular solution.

[3] = target: T3, AMPA (GluR1, 2, 3) receptor (Rattus norvegicus, UniProt P19490+P19491+P19492); assay: Kainate-evoked currents in GluR1, 2, 3 receptors expressed in Xenopus oocytes; conditions: nefiracetam 1 µM; kainate 100 µM; holding voltage -30 mV; n=5
T3 construct: expressed in transfected cells; host or cells: Xenopus oocytes injected with mRNA
Protocol: GluR 1, 2, 3 receptors which are AMPA receptors were expressed in Xenopus oocytes. Cell membrane currents evoked with kainate (100 µM) were recorded before and after administration of nefiracetam (1 µM) (n=5). […] The holding voltage was -30 mV. • (B): An oocyte expressing normal ACh receptors was loaded with Calcium Green. In Ca^2+-free (extCa^2+(-)) extracellular solution (extCa^2+(-)) and ordinary (i.e., Ca^2+-containing) extracellular solution, intracellular Ca^2+ ([Ca^2+]i) and Ach-evoked currents (IA) were recorded. The Ca^2+ rise was normalized by dividing "Δ increase of fluorescence intensity (DI)" by "base intensity (I)", and further by "current amplitude obtained with Ca^2+-free solution (2) (µA)". Indicated by "(1)" are currents obtained with Ca^2+-containing solution.
GluR1, 2, 3 receptors were expressed in Xenopus oocytes. Cell membrane currents evoked by kainate (100 µM) were recorded (n = 5) before and after treatment with nefiracetam (1 µM). The holding voltage was fixed at -30 mV.

[4] = system: mutant ACh receptors lacking potent PKC phosphorylation sites on the α and δ subunits (mαΔPKC/Ser333m δΔPKC/Ser377); assay: ACh-evoked currents in mutant ACh receptors lacking PKC phosphorylation sites expressed in Xenopus oocytes; conditions: nefiracetam 1 µM

T2 sequence (P02718 22-522): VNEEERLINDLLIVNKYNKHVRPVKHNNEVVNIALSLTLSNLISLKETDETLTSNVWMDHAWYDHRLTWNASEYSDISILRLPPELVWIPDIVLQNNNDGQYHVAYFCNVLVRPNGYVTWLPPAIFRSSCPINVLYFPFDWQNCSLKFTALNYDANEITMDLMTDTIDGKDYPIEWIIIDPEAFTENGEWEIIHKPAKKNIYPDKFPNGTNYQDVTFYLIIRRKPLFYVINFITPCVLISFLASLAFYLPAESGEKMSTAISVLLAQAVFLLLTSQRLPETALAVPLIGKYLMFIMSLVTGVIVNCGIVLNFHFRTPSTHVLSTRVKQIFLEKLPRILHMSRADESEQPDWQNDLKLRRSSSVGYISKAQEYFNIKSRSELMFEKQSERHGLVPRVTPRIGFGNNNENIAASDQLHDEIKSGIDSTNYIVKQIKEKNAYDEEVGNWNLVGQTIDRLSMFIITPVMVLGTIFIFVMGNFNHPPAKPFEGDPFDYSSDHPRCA
T2 sequence (P02712 25-493): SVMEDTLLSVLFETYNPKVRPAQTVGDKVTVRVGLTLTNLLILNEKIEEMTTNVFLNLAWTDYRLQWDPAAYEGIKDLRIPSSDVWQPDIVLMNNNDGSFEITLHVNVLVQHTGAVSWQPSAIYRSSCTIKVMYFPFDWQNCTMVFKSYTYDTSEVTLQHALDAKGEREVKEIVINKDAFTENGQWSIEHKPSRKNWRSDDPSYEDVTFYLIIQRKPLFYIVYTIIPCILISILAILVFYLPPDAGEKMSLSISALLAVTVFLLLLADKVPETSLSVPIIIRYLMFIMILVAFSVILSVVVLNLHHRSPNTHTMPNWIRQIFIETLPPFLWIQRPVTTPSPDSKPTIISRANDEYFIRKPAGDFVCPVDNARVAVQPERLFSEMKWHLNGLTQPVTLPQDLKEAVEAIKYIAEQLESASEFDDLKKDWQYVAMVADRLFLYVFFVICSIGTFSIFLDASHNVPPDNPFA
T2 sequence (P02710 25-461): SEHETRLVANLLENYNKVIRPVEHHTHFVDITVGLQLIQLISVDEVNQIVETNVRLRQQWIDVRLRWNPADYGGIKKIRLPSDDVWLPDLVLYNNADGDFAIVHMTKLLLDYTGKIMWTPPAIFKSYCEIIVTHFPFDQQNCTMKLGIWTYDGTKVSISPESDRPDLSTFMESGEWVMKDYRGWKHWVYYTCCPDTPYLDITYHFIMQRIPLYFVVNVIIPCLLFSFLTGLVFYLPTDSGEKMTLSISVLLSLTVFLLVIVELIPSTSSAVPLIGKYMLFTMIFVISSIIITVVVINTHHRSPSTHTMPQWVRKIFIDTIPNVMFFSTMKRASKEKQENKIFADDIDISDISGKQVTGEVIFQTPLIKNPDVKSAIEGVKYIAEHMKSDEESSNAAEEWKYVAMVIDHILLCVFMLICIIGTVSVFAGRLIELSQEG
T2 sequence (P02714 18-506): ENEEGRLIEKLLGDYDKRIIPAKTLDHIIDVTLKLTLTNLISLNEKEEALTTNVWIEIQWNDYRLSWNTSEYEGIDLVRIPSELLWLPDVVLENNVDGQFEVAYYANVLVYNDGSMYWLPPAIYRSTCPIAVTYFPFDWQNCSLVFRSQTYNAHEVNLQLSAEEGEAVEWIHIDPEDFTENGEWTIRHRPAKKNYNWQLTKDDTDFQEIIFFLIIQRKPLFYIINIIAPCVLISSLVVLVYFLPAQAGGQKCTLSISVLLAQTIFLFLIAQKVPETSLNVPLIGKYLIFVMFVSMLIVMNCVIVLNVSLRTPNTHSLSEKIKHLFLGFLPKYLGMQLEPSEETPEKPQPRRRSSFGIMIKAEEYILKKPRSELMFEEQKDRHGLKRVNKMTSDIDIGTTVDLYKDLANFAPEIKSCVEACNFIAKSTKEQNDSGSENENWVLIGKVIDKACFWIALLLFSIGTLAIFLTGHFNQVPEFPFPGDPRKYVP
T1 sequence (Q05941 23-502): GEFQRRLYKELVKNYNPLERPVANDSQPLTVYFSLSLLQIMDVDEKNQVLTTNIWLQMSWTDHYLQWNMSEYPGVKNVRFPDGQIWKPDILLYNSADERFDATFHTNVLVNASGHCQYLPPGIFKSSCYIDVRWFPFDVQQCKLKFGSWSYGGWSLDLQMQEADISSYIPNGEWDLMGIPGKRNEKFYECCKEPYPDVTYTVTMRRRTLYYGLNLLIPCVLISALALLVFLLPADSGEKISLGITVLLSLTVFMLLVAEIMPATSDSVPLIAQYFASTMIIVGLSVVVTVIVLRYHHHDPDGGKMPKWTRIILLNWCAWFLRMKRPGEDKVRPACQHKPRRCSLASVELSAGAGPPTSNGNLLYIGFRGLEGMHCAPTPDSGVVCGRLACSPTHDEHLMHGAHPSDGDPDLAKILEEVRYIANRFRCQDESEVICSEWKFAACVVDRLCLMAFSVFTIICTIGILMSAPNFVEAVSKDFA
T3 sequence (P19490 19-907): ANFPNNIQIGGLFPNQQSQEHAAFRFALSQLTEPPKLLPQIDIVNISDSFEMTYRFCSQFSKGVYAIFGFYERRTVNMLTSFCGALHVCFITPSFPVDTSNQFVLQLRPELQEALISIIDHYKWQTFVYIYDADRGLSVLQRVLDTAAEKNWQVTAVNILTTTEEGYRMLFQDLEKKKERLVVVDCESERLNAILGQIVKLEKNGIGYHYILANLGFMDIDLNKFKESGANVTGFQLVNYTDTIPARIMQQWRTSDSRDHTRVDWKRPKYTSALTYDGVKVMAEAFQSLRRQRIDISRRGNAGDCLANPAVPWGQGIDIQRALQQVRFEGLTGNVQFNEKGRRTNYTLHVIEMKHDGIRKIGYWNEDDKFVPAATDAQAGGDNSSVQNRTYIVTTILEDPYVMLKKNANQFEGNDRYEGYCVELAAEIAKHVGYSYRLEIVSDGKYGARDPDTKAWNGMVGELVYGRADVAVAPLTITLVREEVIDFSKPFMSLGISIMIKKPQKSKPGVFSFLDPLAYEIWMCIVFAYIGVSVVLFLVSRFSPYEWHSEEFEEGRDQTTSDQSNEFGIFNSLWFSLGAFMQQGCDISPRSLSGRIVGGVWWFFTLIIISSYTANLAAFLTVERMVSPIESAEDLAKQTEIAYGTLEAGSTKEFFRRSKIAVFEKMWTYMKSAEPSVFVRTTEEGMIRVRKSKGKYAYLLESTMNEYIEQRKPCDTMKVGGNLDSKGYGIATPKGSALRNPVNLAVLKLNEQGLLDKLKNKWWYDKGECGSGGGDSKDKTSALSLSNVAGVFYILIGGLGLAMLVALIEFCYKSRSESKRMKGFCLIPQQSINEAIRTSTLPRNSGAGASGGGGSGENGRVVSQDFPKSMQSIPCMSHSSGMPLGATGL
T3 sequence (P19491 22-883): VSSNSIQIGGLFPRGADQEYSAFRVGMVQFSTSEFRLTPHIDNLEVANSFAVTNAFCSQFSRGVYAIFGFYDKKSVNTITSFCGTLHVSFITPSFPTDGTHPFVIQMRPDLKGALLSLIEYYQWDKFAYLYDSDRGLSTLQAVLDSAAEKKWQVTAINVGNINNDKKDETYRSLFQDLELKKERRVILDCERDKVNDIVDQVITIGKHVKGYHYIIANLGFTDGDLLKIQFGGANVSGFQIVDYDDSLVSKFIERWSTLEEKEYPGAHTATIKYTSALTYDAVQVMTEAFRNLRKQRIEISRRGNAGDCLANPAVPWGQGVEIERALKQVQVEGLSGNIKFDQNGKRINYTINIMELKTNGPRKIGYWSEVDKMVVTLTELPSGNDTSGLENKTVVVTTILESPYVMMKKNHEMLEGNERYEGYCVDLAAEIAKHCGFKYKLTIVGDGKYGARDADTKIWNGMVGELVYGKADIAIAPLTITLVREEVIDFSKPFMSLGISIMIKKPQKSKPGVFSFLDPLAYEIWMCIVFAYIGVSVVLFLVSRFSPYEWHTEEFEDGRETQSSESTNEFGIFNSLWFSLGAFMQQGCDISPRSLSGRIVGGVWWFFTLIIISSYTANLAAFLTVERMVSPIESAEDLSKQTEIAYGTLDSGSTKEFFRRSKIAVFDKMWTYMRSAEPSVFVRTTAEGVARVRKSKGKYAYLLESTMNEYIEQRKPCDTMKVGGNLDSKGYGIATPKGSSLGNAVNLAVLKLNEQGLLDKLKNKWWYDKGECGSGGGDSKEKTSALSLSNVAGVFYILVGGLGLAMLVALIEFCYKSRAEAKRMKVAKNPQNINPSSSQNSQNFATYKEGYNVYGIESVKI
T3 sequence (P19492 23-888): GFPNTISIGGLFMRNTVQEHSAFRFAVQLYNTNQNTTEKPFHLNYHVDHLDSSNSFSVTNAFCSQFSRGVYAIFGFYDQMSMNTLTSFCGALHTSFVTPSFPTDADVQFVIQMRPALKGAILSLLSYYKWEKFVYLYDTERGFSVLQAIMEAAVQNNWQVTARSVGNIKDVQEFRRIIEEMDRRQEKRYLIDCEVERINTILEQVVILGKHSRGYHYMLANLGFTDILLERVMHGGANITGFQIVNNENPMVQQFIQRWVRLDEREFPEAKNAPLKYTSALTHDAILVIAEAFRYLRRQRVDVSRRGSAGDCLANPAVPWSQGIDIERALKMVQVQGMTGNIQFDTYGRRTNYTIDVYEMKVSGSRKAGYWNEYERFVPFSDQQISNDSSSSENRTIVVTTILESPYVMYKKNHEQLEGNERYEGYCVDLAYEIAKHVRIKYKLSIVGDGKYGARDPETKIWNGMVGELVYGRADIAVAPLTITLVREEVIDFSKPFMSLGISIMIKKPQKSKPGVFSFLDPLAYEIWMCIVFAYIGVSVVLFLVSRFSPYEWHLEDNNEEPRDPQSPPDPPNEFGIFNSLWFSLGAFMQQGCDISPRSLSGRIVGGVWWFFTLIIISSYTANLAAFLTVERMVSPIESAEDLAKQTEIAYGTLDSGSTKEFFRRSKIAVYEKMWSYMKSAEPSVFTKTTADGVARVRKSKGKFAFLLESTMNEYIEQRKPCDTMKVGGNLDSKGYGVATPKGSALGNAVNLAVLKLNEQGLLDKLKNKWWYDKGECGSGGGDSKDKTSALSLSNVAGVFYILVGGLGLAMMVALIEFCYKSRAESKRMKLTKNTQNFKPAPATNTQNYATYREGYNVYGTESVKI

SMILES: Cc1cccc(C)c1NC(=O)CN1CCCC1=O [nefiracetam, 2-oxo-1-pyrrolidinylacetic acid 2,6-dimethylanilide]
- concentration of maximum potentiation of ACh-evoked currents [1]: 1 µM
- activity at 1 µM ([1]; 1 h, nefiracetam 1 µM, 60 minutes after treatment, read-out: ACh-evoked currents potentiated, reaching): 195%
- normalized response (%) ([1]; ACh 0.1 µM, nefiracetam 1 µM): 0%
- normalized response (%) ([1]; ACh 1 µM, nefiracetam 1 µM): 1.5%
- normalized response (%) ([1]; ACh 10 µM, nefiracetam 1 µM): 3%
- normalized response (%) ([1]; ACh 100 µM, nefiracetam 1 µM): 35%
- normalized response (%) ([1]; ACh 1000 µM, nefiracetam 1 µM): 100%
- activity at 0.01 µM ([1]; Nefiracetam 0.01 µM, n = 5 to 8, read-out: % of the original amplitude): 97.4 ± 5.5%
- activity at 0.1 µM ([1]; Nefiracetam 0.1 µM, n = 5 to 8, read-out: % of the original amplitude): 181 ± 10.8%
- activity at 1 µM ([1]; Nefiracetam 1 µM, n = 5 to 8, read-out: % of the original amplitude): 195 ± 8.8%
- activity at 10 µM ([1]; Nefiracetam 10 µM, n = 5 to 8, read-out: % of the original amplitude): 116 ± 7.2%
- currents potentiated to ([1]; in the presence of the inactive PKC inhibitory peptide (NP153; iPKCI)): 193.6%
- concentration at which potentiation of ACh-evoked currents was observed ([1]; lowest effective concentration): ≥ 0.01 µM
- inhibition at 0.01 µM ([2]; 0.01 µM nefiracetam for 10 min, n=7, read-out: reduction in ACh-evoked current): 70%
- inhibition at 0.1 µM ([2]; 0.1 µM nefiracetam for 10 min, read-out: reduction in ACh-evoked current): 62%
- activity at 1 µM ([2]; 1.5 h, 1 µM, 10-min treatment, 90 min after washing-out, n=7, read-out: ACh-evoked currents enhanced, reaching): 243%
- activity at 10 µM ([2]; 1.5 h, 10 µM, 10-min treatment, 90 min after washing-out, n=7, read-out: ACh-evoked currents enhanced, reaching): 255%
- ACh-evoked currents reduced to ([2]; nefiracetam in the presence of GF109203X, 30 minutes after administration, n=7): 60%
- effect on AMPA (GluR1, 2, 3) receptor currents (Fig. 1) [3]: never potentiated
- current potentiation in mutant ACh receptors lacking PKC phosphorylation sites [4]: exhibited no current potentiation
